Experimental data taken from ChEMBL document CHEMBL1201862, “PubChem BioAssay data set” (2004).
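The compound was tested at five concentrations on cells cultured in 96-well plates, with a 48-hour exposure period. At the GI50, growth is halved.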 Activity calls are given as the source filed them. Cut-off read from the data, not from the text of the source: active = GI50 up to about 1.1 µM and inactive = higher.

How the values were obtained:
Test in all cases: DTP human tumour cell line panel, 48 h
A549 = test system: A549
DLD-1 = test system: DLD-1
DMS-114 = test system: DMS-114
HOP-18 = test system: HOP-18
HT-29 = test system: HT-29
M19-MEL = test system: M19-MEL
MOLT-4 = test system: MOLT-4
NCI-H522 = test system: NCI-H522
RXF 393 = test system: RXF 393
SK-MEL-5 = test system: SK-MEL-5
SK-OV-3 = test system: SK-OV-3
SNB-19 = test system: SNB-19
SNB-75 = test system: SNB-75
SW-620 = test system: SW-620
U-251 = test system: U-251

O=[N+]([O-])c1ccc(N2N=C(c3ccc(NCc4nc5ccccc5[nH]4)cc3)CC2c2ccco2)cc1 (stereo not given)
GI50 (A549): 34.8 µM (inactive)
GI50 (DLD-1): 29.4 µM (inactive)
GI50 (DMS-114): 18.1 µM (inactive)
GI50 (HOP-18): 50.5 µM (inactive)
GI50 (HT-29): 27.5 µM (inactive)
GI50 (M19-MEL): 29.3 µM (inactive)
GI50 (MOLT-4): 10.4 µM (inactive)
GI50 (NCI-H522): 15.5 µM (inactive)
GI50 (RXF 393): 42.2 µM (inactive)
GI50 (SK-MEL-5): 14.2 µM (inactive)
GI50 (SK-OV-3): 82.2 µM (inactive)
GI50 (SNB-19): 23.4 µM (inactive)
GI50 (SNB-75): 27.9 µM (inactive)
GI50 (SW-620): 34.7 µM (inactive)
GI50 (U-251): 29.8 µM (inactive)

C=C1C(=O)OC2CC1CCC1(C)OC1CCC(C)=CCCC2(C)O (stereo not given)
GI50 (A549): 8.36 µM (inactive)
GI50 (DLD-1): 1.81 µM (inactive)
GI50 (DMS-114): 2.74 µM (inactive)
GI50 (HOP-18): 1.47 µM (inactive)
GI50 (HT-29): 4.06 µM (inactive)
GI50 (M19-MEL): 4.2 µM (inactive)
GI50 (MOLT-4): 1.87 µM (inactive)
GI50 (NCI-H522): 1.06 µM (active)
GI50 (RXF 393): 1.2 µM (inactive)
GI50 (SK-MEL-5): 4 µM (inactive)
GI50 (SK-OV-3): 16.7 µM (inactive)
GI50 (SNB-19): 14.1 µM (inactive)
GI50 (SNB-75): 7.08 µM (inactive)
GI50 (SW-620): 1.12 µM (inactive)
GI50 (U-251): 11.8 µM (inactive)

CC(=O)OC1CC2Oc3ccc(C)cc3C(C)(O2)C1=O (stereo not given)
GI50 (A549): > 100 µM (inactive)
GI50 (DLD-1): > 100 µM (inactive)
GI50 (DMS-114): > 100 µM (inactive)
GI50 (HOP-18): > 100 µM (inactive)
GI50 (HT-29): > 100 µM (inactive)
GI50 (M19-MEL): > 100 µM (inactive)
GI50 (MOLT-4): > 100 µM (inactive)
GI50 (NCI-H522): > 100 µM (inactive)
GI50 (RXF 393): > 100 µM (inactive)
GI50 (SK-MEL-5): > 100 µM (inactive)
GI50 (SK-OV-3): > 100 µM (inactive)
GI50 (SNB-19): > 100 µM (inactive)
GI50 (SNB-75): 51.1 µM (inactive)
GI50 (SW-620): > 100 µM (inactive)
GI50 (U-251): > 100 µM (inactive)

Nc1nc(CCC(=O)Nc2cccc(C(F)(F)F)c2)cc(-c2ccc3ccccc3c2)n1
GI50 (A549): > 100 µM (inactive)
GI50 (DLD-1): > 100 µM (inactive)
GI50 (DMS-114): > 100 µM (inactive)
GI50 (HOP-18): > 100 µM (inactive)
GI50 (HT-29): > 100 µM (inactive)
GI50 (M19-MEL): > 100 µM (inactive)
GI50 (MOLT-4): > 100 µM (inactive)
GI50 (NCI-H522): > 100 µM (inactive)
GI50 (RXF 393): > 100 µM (inactive)
GI50 (SK-MEL-5): > 100 µM (inactive)
GI50 (SK-OV-3): > 100 µM (inactive)
GI50 (SNB-19): > 100 µM (inactive)
GI50 (SNB-75): > 100 µM (inactive)
GI50 (SW-620): > 100 µM (inactive)
GI50 (U-251): > 100 µM (inactive)

O=C1C=CC(=O)c2c(Cl)ccc(O)c21
GI50 (A549): > 81.8 µM (inactive)
GI50 (DLD-1): 13.9 µM (inactive)
GI50 (DMS-114): 16.8 µM (inactive)
GI50 (HOP-18): 19.1 µM (inactive)
GI50 (HT-29): 21.6 µM (inactive)
GI50 (M19-MEL): 16.3 µM (inactive)
GI50 (MOLT-4): 4.54 µM (inactive)
GI50 (NCI-H522): 13.9 µM (inactive)
GI50 (RXF 393): 16 µM (inactive)
GI50 (SK-MEL-5): 17.7 µM (inactive)
GI50 (SK-OV-3): > 100 µM (inactive)
GI50 (SNB-19): > 100 µM (inactive)
GI50 (SNB-75): 28.5 µM (inactive)
GI50 (SW-620): 11.6 µM (inactive)
GI50 (U-251): > 57 µM (inactive)

COC1(OC)CCC2C1C1CCC(OC)(OC)C21 (stereo not given)
GI50 (A549): > 50 µM (inactive)
GI50 (DLD-1): > 50 µM (inactive)
GI50 (DMS-114): > 50 µM (inactive)
GI50 (HOP-18): > 50 µM (inactive)
GI50 (HT-29): > 50 µM (inactive)
GI50 (M19-MEL): > 50 µM (inactive)
GI50 (MOLT-4): > 50 µM (inactive)
GI50 (NCI-H522): > 50 µM (inactive)
GI50 (RXF 393): > 50 µM (inactive)
GI50 (SK-MEL-5): > 50 µM (inactive)
GI50 (SK-OV-3): > 50 µM (inactive)
GI50 (SNB-19): > 50 µM (inactive)
GI50 (SNB-75): > 50 µM (inactive)
GI50 (SW-620): > 50 µM (inactive)
GI50 (U-251): > 50 µM (inactive)

ClCc1ccc2ccc3ccc(CCl)nc3c2n1
GI50 (A549): 4.76 µM (inactive)
GI50 (DLD-1): 1.5 µM (inactive)
GI50 (DMS-114): 1.87 µM (inactive)
GI50 (HOP-18): 2.65 µM (inactive)
GI50 (HT-29): 2.17 µM (inactive)
GI50 (M19-MEL): 1.76 µM (inactive)
GI50 (MOLT-4): 1.73 µM (inactive)
GI50 (NCI-H522): 1.76 µM (inactive)
GI50 (RXF 393): 1.72 µM (inactive)
GI50 (SK-MEL-5): 1.4 µM (inactive)
GI50 (SK-OV-3): 8.89 µM (inactive)
GI50 (SNB-19): 11.9 µM (inactive)
GI50 (SNB-75): 1.95 µM (inactive)
GI50 (SW-620): 2.5 µM (inactive)
GI50 (U-251): 1.93 µM (inactive)

CC1=C2C3OC(=O)C(C)C3CCC2(C)C=C/C1=N\c1ccccc1 (stereo not given)
GI50 (A549): > 100 µM (inactive)
GI50 (DLD-1): > 100 µM (inactive)
GI50 (DMS-114): > 100 µM (inactive)
GI50 (HOP-18): > 57.1 µM (inactive)
GI50 (HT-29): > 100 µM (inactive)
GI50 (M19-MEL): > 100 µM (inactive)
GI50 (MOLT-4): > 100 µM (inactive)
GI50 (NCI-H522): > 100 µM (inactive)
GI50 (RXF 393): > 100 µM (inactive)
GI50 (SK-MEL-5): > 100 µM (inactive)
GI50 (SK-OV-3): > 100 µM (inactive)
GI50 (SNB-19): > 100 µM (inactive)
GI50 (SNB-75): > 53.3 µM (inactive)
GI50 (SW-620): > 100 µM (inactive)
GI50 (U-251): > 100 µM (inactive)

COc1cc2c(ccc3c4cc(OC)c(OC)cc4c[n+](C)c23)cc1O [FAGARONINE]
GI50 (A549): 19.9 µM (inactive)
GI50 (DLD-1): 67.5 µM (inactive)
GI50 (DMS-114): 2.37 µM (inactive)
GI50 (HOP-18): > 75 µM (inactive)
GI50 (HT-29): > 73.3 µM (inactive)
GI50 (M19-MEL): 23.9 µM (inactive)
GI50 (MOLT-4): 4.28 µM (inactive)
GI50 (NCI-H522): 0.131 µM (active)
GI50 (RXF 393): 30 µM (inactive)
GI50 (SK-MEL-5): 4.09 µM (inactive)
GI50 (SK-OV-3): 21.6 µM (inactive)
GI50 (SNB-19): 1.15 µM (inactive)
GI50 (SNB-75): 2.9 µM (inactive)
GI50 (SW-620): 12.7 µM (inactive)
GI50 (U-251): 0.264 µM (active)
